Measurements reported in patent publication US9957264B2 (Merck Sharp & Dohme Corp., priority 2013, dated 2018).

What was measured:
[1] = target: JAK1 (recombinant purified GST-tagged catalytic domain) (Homo sapiens (Human), UniProt P23458); assay: Jak Biochemical HTRF Assay (JAK1); conditions: [ATP] 31.8 μM
Method in brief: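 Read-out is the 665/615 nm time-resolved FRET ratio from Eu-pY20 antibody and streptavidin-Dylight 650 bound to phosphorylated biotin-peptide. Reactions ran 120 min at room temperature after ATP start. Inhibition normalized to untreated controls gave IC50 via 4-parameter fit.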

[2] = target: JAK2 (recombinant purified GST-tagged catalytic domain) (Homo sapiens (Human), UniProt O60674); assay: Jak Biochemical HTRF Assay (JAK2); conditions: [ATP] 8.5 μM
Chain of JAK2 (recombinant purified GST-tagged catalytic domain) (O60674 849-1124): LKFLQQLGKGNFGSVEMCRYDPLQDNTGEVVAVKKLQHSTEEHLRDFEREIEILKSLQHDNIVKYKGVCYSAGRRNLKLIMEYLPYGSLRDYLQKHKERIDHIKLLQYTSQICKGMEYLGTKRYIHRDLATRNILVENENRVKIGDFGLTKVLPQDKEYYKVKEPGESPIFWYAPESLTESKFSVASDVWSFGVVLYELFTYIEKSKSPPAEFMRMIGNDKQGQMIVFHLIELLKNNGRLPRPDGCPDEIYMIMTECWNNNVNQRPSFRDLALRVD

Chain of JAK1 (recombinant purified GST-tagged catalytic domain) (P23458 875-1153): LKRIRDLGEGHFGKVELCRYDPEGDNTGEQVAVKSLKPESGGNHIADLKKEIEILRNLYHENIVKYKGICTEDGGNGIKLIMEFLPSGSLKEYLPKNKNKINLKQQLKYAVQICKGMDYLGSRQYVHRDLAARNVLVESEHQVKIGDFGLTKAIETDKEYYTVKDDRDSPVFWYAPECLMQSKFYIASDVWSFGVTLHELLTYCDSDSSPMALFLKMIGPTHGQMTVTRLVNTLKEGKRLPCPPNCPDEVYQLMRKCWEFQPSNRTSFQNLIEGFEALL

Structure (SMILES) | IC50 [1] | IC50 [2]
CN(C)S(=O)(=O)c1ccc(Nc2nn(C3(CC#N)CCN(Cc4c(F)ccc(F)c4F)CC3)c3cc[nH]c(=O)c23)cc1 [Example 8-11, 4-({1-[4-(cyanomethyl)-1-(2,3,6-trifluorobenzyl)piperidin-4-yl]-4-oxo-4,5-dihydro-1H-pyrazolo[4,3-c]pyridin-3-yl}amino)-N,N-dimethylbenzenesulfonamide] | 0.24 nM | 0.28 nM
CCN(CC)S(=O)(=O)c1ccc(Nc2nn(C3(CC#N)CCCC3)c3cc[nH]c(=O)c23)cc1 [Example 5-136, 4-((1-(1-(cyanomethyl)cyclopentyl)-4-oxo-4,5-dihydro-1H-pyrazolo[4,3-c]pyridin-3-yl)amino)-N,N-diethylbenzenesulfonamide] | 0.56 nM | 1.01 nM
CN(C(C)(C)C)S(=O)(=O)c1ccc(Nc2nn([C@]3(CC#N)CCCOC3)c3cc[nH]c(=O)c23)cc1 [Example 5-182, N-tert-butyl-4-({1-[(3S)-3-(cyanomethyl)tetrahydro-2H-pyran-3-yl]-4-oxo-4,5-dihydro-1H-pyrazolo[4,3-c]pyridin-3-yl}amino)-N-methylbenzenesulfonamide] | 0.25 nM | 0.57 nM
CN(C)C(c1ccc(Nc2nn([C@]3(CC#N)CC[C@@H](C(=O)OC(C)(C)C)OC3)c3cc[nH]c(=O)c23)cc1)C(F)(F)F (single isomer, unassigned) [Example 5-213, (2S,5S)-tert-butyl 5-(cyanomethyl)-5-(3-((4-((R or S)-1-(dimethylamino)-2,2,2-trifluoroethyl)phenyl)amino)-4-oxo-4,5-dihydro-1H-pyrazolo[4,3-c]pyridin-1-yl)tetrahydro-2H-pyran-2-carboxylate] | 0.19 nM | 0.29 nM
CC1(C)CCCN1S(=O)(=O)c1ccc(Nc2nn([C@]3(CC#N)CCCOC3)c3cc[nH]c(=O)c23)cc1 [Example 5-107, {(3S)-3-[3-({4-[(2,2-dimethylpyrrolidin-1-yl)sulfonyl]phenyl}amino)-4-oxo-4,5-dihydro-1H-pyrazolo[4,3-c]pyridin-1-yl]tetrahydro-2H-pyran-3-yl} acetonitrile] | 0.2 nM | 0.33 nM
CC(C)(C)OC(=O)[C@@H]1CC[C@@](CC#N)(n2nc(Nc3ccc4c(c3)CN(CC(F)(F)F)C4=O)c3c(=O)[nH]ccc32)CO1 [Example 5-95, (2S,5S)-tert-butyl 5-(cyanomethyl)-5-(4-oxo-3-((1-oxo-2-(2,2,2-trifluoroethyl)isoindolin-5-yl)amino)-4,5-dihydro-1H-pyrazolo[4,3-c]pyridin-1-yl)tetrahydro-2H-pyran-2-carboxylate] | 0.07 nM | 0.2 nM
CN(C)S(=O)(=O)c1ccc(Nc2nn([C@@]3(CC#N)COCC[C@H]3F)c3cc[nH]c(=O)c23)cc1 (single isomer, unassigned) [Example 5-181, 4-({1-[(3S,4R or 3S,4R)-3-(cyanomethyl)-4-fluorotetrahydro-2H-pyran-3-yl]-4-oxo-4,5-dihydro-1H-pyrazolo[4,3-c]pyridin-3-yl}amino)-N,N-dimethylbenzene-sulfonamide] | 0.29 nM | 0.95 nM
CC(C)(C)OC(=O)N1CC[C@](CC#N)(n2nc(Nc3ccc([C@@H](O)C(F)(F)F)cc3)c3c(=O)[nH]ccc32)[C@H](F)C1 (single isomer, unassigned) [Example 5-21, tert-butyl (3R,4R)-4-(cyanomethyl)-3-fluoro-4-[4-oxo-3-({4-[(1R or 1S)-2,2,2-trifluoro-1-hydroxyethyl]phenyl}amino)-4,5-dihydro-1H-pyrazolo[4,3-c]pyridin-1-yl]piperidine-1-carboxylate] | 0.15 nM | 0.14 nM
CC(C)(C)OC(=O)N1CC[C@](CC#N)(n2nc(Nc3ccccc3)c3c(=O)[nH]ccc32)[C@H](F)C1 [Example 5-19, tert-butyl (3R,4R)-4-(cyanomethyl)-3-fluoro-4-[4-oxo-3-(phenyl-amino)-4,5-dihydro-1H-pyrazolo[4,3-c]pyridin-1-yl]piperidine-1-carboxylate] | 0.08 nM | 0.08 nM
COC(=O)N1CCC(CC#N)(n2nc(Nc3ccc(S(=O)(=O)C(C)(C)C)cc3)c3c(=O)[nH]ccc32)CC1 [Example 5-150, methyl 4-(3-((4-(tert-butylsulfonyl)phenyl)amino)-4-oxo-4,5-dihydro-1H-pyrazolo [4,3-c]pyridin-1-yl)-4-(cyanomethyl)piperidine-1-carboxylate] | 0.1 nM | 0.14 nM
CC(C)(C)OC(=O)N1CC[C@](CC#N)(n2nc(Nc3ccc(S(C)(=O)=O)cc3)c3c(=O)[nH]ccc32)[C@@H](F)C1 (single isomer, unassigned) [Example 5-14, tert-butyl (3S,4R or 3R,4S)-4-(cyanomethyl)-3-fluoro-4-(3-{[4-(methylsulfonyl)phenyl]amino}-4-oxo-4,5-dihydro-1H-pyrazolo[4,3-c]pyridin-1-yl)piperidine-1-carboxylate] | 1.07 nM | 17.7 nM
CN(C)S(=O)(=O)c1ccc(Nc2nn(C3(CC#N)CCN(Cc4ncco4)CC3)c3cc[nH]c(=O)c23)cc1 [Example 8-12, 4-({1-[4-(cyanomethyl)-1-(1,3-oxazol-2-ylmethyl)piperidin-4-yl]-4-oxo-4,5-dihydro-1H-pyrazolo[4,3-c]pyridin-3-yl}amino)-N,N-dimethylbenzenesulfonamide] | 0.26 nM | 0.99 nM
N#CC[C@@]1(n2nc(Nc3ccc(C(N4CCCC4)C(F)(F)F)cc3)c3c(=O)[nH]ccc32)CCCOC1 (single isomer, unassigned) [Example 5-199, {(3S)-3-[4-oxo-3-({4-[(1S or 1R)-2,2,2-trifluoro-1-pyrrolidin-1-ylethyl]phenyl}amino)-4,5-dihydro-1H-pyrazolo[4,3-c]pyridin-1-yl]tetrahydro-2H-pyran-3-yl}acetonitrile] | 0.15 nM | 0.33 nM
CC(C)NC(c1ccc(Nc2nn([C@]3(CC#N)CCCOC3)c3cc[nH]c(=O)c23)cc1)C(F)(F)F (single isomer, unassigned) [Example 5-206, [(3S)-3-{4-oxo-3-[(4-{(1S or 1R)-2,2,2-trifluoro-1-[(1-methylethyl)amino]ethyl}phenyl)amino]-4,5-dihydro-1H-pyrazolo [4,3-c]pyridin-1-yl}tetrahydro-2H-pyran-3-yl]acetonitrile] | 0.13 nM | 0.16 nM

The next lines start with the values.

IC50 [1] | IC50 [2] | Structure (SMILES)
0.27 nM | 0.61 nM | COCC(C)OC(=O)N1CCC(CC#N)(n2nc(Nc3ccc(S(=O)(=O)N(C)C)cc3)c3c(=O)[nH]ccc32)CC1 (centres unmarked) [Example 11-5, 1-methoxypropan-2-yl 4-(cyanomethyl)-4-(3-((4-(N,N-dimethylsulfamoyl)phenyl)amino)-4-oxo-4,5-dihydro-1H-pyrazolo[4,3-c]pyridin-1-yl)piperidine-1-carboxylate]
0.65 nM | 5.17 nM | CN(C)CC(=O)N1CCC(CC#N)(n2nc(Nc3ccc(S(=O)(=O)N(C)C)cc3)c3c(=O)[nH]ccc32)CC1 [Example 9-4, 4-({1-[4-(cyanomethyl)-1-(N,N-dimethylglycyl)piperidin-4-yl]-4-oxo-4,5-dihydro-1H-pyrazolo[4,3-c]pyridin-3-yl}amino)-N,N-dimethylbenzenesulfonamide]
1.11 nM | 1.96 nM | CO[C@H](c1ccc(Nc2nn(C3(CC#N)CCN(C(=O)OC(C)(C)C)CC3)c3cc[nH]c(=O)c23)cc1)C(F)(F)F (single isomer, unassigned) [Example 21-9, tert-butyl 4-(cyanomethyl)-4-[4-oxo-3-({4-[(1R or 1S)-2,2,2-trifluoro-1-methoxyethyl]phenyl}amino)-4,5-dihydro-1H-pyrazolo[4,3-c]pyridin-1-yl]piperidine-1-carboxylate]
0.09 nM | 0.21 nM | CN(C)S(=O)(=O)c1ccc(Nc2nn(C3(CC#N)CCN(C(=O)CCC#N)CC3)c3cc[nH]c(=O)c23)cc1 [Example 9-22, 4-({1-[4-(cyanomethyl)-1-(3-cyanopropanoyl)piperidin-4-yl]-4-oxo-4,5-dihydro-1H-pyrazolo[4,3-c]pyridin-3-yl}amino)-N,N-dimethylbenzenesulfonamide]
0.16 nM | 0.37 nM | CS(=O)(=O)c1ccc(Nc2nn(C3(CC#N)CCN(c4cc(C(F)(F)F)ccn4)CC3)c3cc[nH]c(=O)c23)cc1 [Example 15-1, 2-(4-(3-((4-(methylsulfonyl)phenyl)amino)-4-oxo-4,5-dihydro-1H-pyrazolo[4,3-c]pyridin-1-yl)-1-(4-(trifluoromethyl)pyridin-2-yl)piperidin-4-yl)acetonitrile]
0.37 nM | 36.6 nM | N#CC[C@]1(n2nc(Nc3ccc(OC(F)(F)F)cc3)c3c(=O)[nH]ccc32)CC[C@H](NC2CCCCC2)CC1 [Example 18-19, Trans 2-(4-(cyclohexylamino)-1-(4-oxo-3-((4-(trifluoromethoxy)phenyl)amino)-4,5-dihydro-1H-pyrazolo[4,3-c]pyridin-1-yl)cyclohexyl)acetonitrile]
0.12 nM | 2.25 nM | CC(C)(C)OC(=O)[C@@H]1CC[C@@](CC#N)(n2nc(Nc3ccnc(F)c3)c3c(=O)[nH]ccc32)CO1 [Example 21-6, (2S,5S)-tert-butyl 5-(cyanomethyl)-5-(3-((2-fluoropyridin-4-yl)amino)-4-oxo-4,5-dihydro-1H-pyrazolo[4,3-c]pyridin-1-yl)tetrahydro-2H-pyran-2-carboxylate]
0.04 nM | 0.04 nM | CC1(C)C(=O)Nc2cc(Nc3nn([C@@]4(CC#N)CCCC[C@H]4F)c4cc[nH]c(=O)c34)ccc21 [Example 21-2, [(1R,2R)-1-{3-[(3,3-dimethyl-2-oxo-2,3-dihydro-1H-indol-6-yl)amino]-4-oxo-4,5-dihydro-1H-pyrazolo[4,3-c]pyridin-1-yl}-2-fluorocyclohexyl]acetonitrile]
